From US10603345B2, “Pharmaceutical composition for treating respiratory disease” (Kunming Institute of Botany, The Chinese Academy of Sciences, priority 2015, dated 2020)

How the values were obtained:
Format in all cases: in vivo
[1] = system: Eotaxin in serum of asthma model mouse; assay: Effect on Eotaxin in serum of asthma model mouse; conditions: ELISA, ig 7 d, dose/kg: dexamethasone 2.0 mg, Test group 1 50, 2 25, picrinine 5.0, vallesamine 3.0, scholaricine 3.0, 19-epi-scholaricine 3.5 mg, x ± SD
Description: (§1) Animal source: 25˜30 g male ICR mouse, from laboratory animal department of Kunming Medical University, License No. SCXK (Dian) 2011-0004.
(§2) Method and route: ovalbumin (OVA) was used to induce mouse asthma model, and after intragastrical administration for 7 d at a dose of 20 mL/kg, the animal was sacrificed at the eighth day.
(§3) Test group 1: picrinine, vallesamine, scholaricine and 19-epischolaricine prepared in Example 1.7 were homogeneously mixed at different ratios by weight (50 mg/kg), Test group 2: the alkaloid composition prepared in Example 1.4 (25 mg/kg). […]
(§4) Sample preparation: all the samples were prepared by using 0.5% carboxymethylcellulose sodium (0.5% CMC-Na).
Group and dose: in Test group 1, the ratio of picrinine, vallesamine, scholaricine and 19-epischolaricine by weight was 37:42:30:8, and the other groups and doses thereof were as described in Example 11.
Test index: eosinophil chemotactic factor (Eotaxin) in serum was used as index, and was determined by enzyme linked immunosorbent assay.

[2] = system: IL-6 in serum of COPD model mouse; assay: Effect on IL-6 in serum of COPD model mouse; conditions: ELISA, ig 7 d, dose/kg: dexamethasone 1 mg, Test group 1 50, 2 25, 3 10, picrinine 10, vallesamine 6, scholaricine 7, 19-epi-scholaricine 2 mg, x ± SD
Description: as §1
(§5) Method and route: lipopolysaccharide (LPS) plus smoke exposure was used for 30 days to induce mouse chronic obstructive pulmonary disease model; and after intragastrical administration for 7 d at a dose of 20 mL/kg, the animal was sacrificed at the eighth day.
(§6) Picrinine group (10 mg/kg), Vallesamine group (6.0 mg/kg), Scholaricine group (7.0 mg/kg), 19-epischolaricine group (2.0 mg/kg).
as §4
Group and dose: in Test group 1, the ratio of picrinine, vallesamine, scholaricine and 19-epischolaricine by weight was 38:30:27:7, and the other groups and doses thereof were as described in Example 10.
Test index: IL-6 in serum was used as index, and was determined by enzyme linked immunosorbent assay.

[3] = system: IL-10 in BALF of asthma model mouse; assay: Effect on IL-10 in BALF of asthma model mouse; conditions: ELISA, ig 7 d, dose/kg: dexamethasone 2.0 mg, Test group 1 50, 2 25, picrinine 5.0, vallesamine 3.0, scholaricine 3.0, 19-epi-scholaricine 3.5 mg, x ± SD
Description: as §1, §2, §3, §4
Group and dose: in Test group 1, the ratio of picrinine, vallesamine, scholaricine and 19-epischolaricine by weight was 18:13:14:3, and the other groups and doses thereof were as described in Example 11.
Test index: IL-10 in BALF was used as index, and was determined by enzyme linked immunosorbent assay.

[4] = system: MDA in serum and homogenate of COPD model mouse; assay: Effect on MDA in serum and homogenate of COPD model mouse; conditions: ig 7 d, dose/kg: dexamethasone 1 mg, Test group 1 50, 2 25, 3 10, picrinine 10, vallesamine 6, scholaricine 7, 19-epi-scholaricine 2 mg, x ± SD
Description: as §1, §5, §6, §4
Group and dose: in Test group 1, the ratio of picrinine, vallesamine, scholaricine and 19-epischolaricine by weight was 9:6:5:1, and the other groups and doses thereof were as described in Example 10.
Test index: MDA in serum and homogenate was used as index, and was determined by thibabituric acid method.

[5] = system: IL-4 in BALF of asthma model mouse; assay: Effect on IL-4 in BALF of asthma model mouse; conditions: ELISA, ig 7 d, dose/kg: dexamethasone 2.0 mg, Test group 1 50, 2 25, picrinine 5.0, vallesamine 3.0, scholaricine 3.0, 19-epi-scholaricine 3.5 mg, x ± SD
Description: as §1, §2, §3, §4
Group and dose: in Test group 1, the ratio of picrinine, vallesamine, scholaricine and 19-epischolaricine by weight was 25:18:15:3, and the other groups and doses thereof were as described in Example 11. […]

[6] = system: white blood cell count and classification in BALF of COPD model mouse; assay: Effect on white blood cell count and classification in BALF of COPD model mouse; conditions: COPD mouse (LPS plus smoke exposure 30 days), ig 7 d, dose/kg: dexamethasone 1 mg, Test group 1 50, 2 25, 3 10, picrinine 10, vallesamine 6, scholaricine 7, 19-epi-scholaricine 2 mg, x ± SD
Description: as §1, §5, §6, §4
Group and dose: in Test group 1, the ratio of picrinine, vallesamine, scholaricine and 19-epischolaricine by weight was 48:40:29:10, and the other groups and doses thereof were as described in Example 10.
Test index: total number of white blood cells and inflammatory cell classification in bronchoalveolar lavage fluid (BALF) were used as indexes, and were determined by full-automatic hemocytometer.

[7] = system: SOD in serum and homogenate of COPD model mouse; assay: Effect on SOD in serum and homogenate of COPD model mouse; conditions: ig 7 d, dose/kg: dexamethasone 1 mg, Test group 1 50, 2 25, 3 10, picrinine 10, vallesamine 6, scholaricine 7, 19-epi-scholaricine 2 mg, x ± SD
Description: as §1, §5, §6, §4
Group and dose: in Test group 1, the ratio of picrinine, vallesamine, scholaricine and 19-epischolaricine by weight was 16:11:12:3, and the other groups and doses thereof were as described in Example 10.
Test index: SOD in serum and lung homogenate was used as index, and was determined by xanthine oxidase method.

[8] = system: CRP in serum in COPD model mouse; assay: Effect on CRP in serum in COPD model mouse; conditions: ELISA, ig 7 d, dose/kg: dexamethasone 1 mg, Test group 1 50, 2 25, 3 10, picrinine 10, vallesamine 6, scholaricine 7, 19-epi-scholaricine 2 mg, x ± SD
Description: as §1, §5, §6, §4
Group and dose: in Test group 1, the ratio of picrinine, vallesamine, scholaricine and 19-epischolaricine by weight was 25:19:20:4, and the other groups and doses thereof were as described in Example 10.
Test index: CRP in serum was used as index, and was determined by enzyme linked immunosorbent assay.

[9] = system: MDA in serum and BALF of asthma model mouse; assay: Effect on MDA in serum and BALF of asthma model mouse; conditions: ig 7 d, dose/kg: dexamethasone 2.0 mg, Test group 1 50, 2 25, picrinine 5.0, vallesamine 3.0, scholaricine 3.0, 19-epi-scholaricine 3.5 mg, x ± SD
Description: as §1, §2, §3, §4
Group and dose: in Test group 1, the ratio of picrinine, vallesamine, scholaricine and 19-epischolaricine by weight was 8:6:5:1, and the other groups and doses thereof were as described in Example 11.
Test index: MDA in serum and BALF was used as index, and was determined by thiobarbituric acid method.

[10] = system: SOD in serum and BALF of asthma model mouse; assay: Effect on SOD in serum and BALF of asthma model mouse; conditions: ig 7 d, dose/kg: dexamethasone 2.0 mg, Test group 1 50, 2 25, picrinine 5.0, vallesamine 3.0, scholaricine 3.0, 19-epi-scholaricine 3.5 mg, x ± SD
Description: as §1, §2, §3, §4
Group and dose: in Test group 1, the ratio of picrinine, vallesamine, scholaricine and 19-epischolaricine by weight was 12:10:9:2, and the other groups and doses thereof were as described in Example 11.
Test index: SOD in serum and BALF was used as index, and was determined by xanthine oxidase method.

[11] = system: WBC count and eosinophil percentage in BALF of asthma model mouse; assay: Effect on WBC count and eosinophil percentage in BALF of asthma model mouse; conditions: OVA-induced asthma mouse, ig 7 d, dose/kg: dexamethasone 2 mg, Test group 1 50, 2 25, picrinine 5.0, vallesamine 3.0, scholaricine 3.0, 19-epi-scholaricine 3.5 mg, x ± SD
Description: as §1, §2, §3, §4
Group and dose: in Test group 1, the ratio of picrinine, vallesamine, scholaricine and 19-epischolaricine by weight was 41:45:28:7, and the other groups and doses thereof were as described in Example 11.
Test index: number of white blood cells (WBCs) and number of eosinophil in bronchoalveolar lavage fluid (BALF) were used as index, and were determined by full-automatic hemocytometer.

[12] = system: IgE in serum of asthma model mouse; assay: Effect on IgE in serum of asthma model mouse; conditions: ELISA, ig 7 d, dose/kg: dexamethasone 2.0 mg, Test group 1 50, 2 25, picrinine 5.0, vallesamine 3.0, scholaricine 3.0, 19-epi-scholaricine 3.5 mg, x ± SD
Description: as §1, §2, §3, §4
Group and dose: In Test group 1, the ratio of picrinine, vallesamine, scholaricine and 19-epischolaricine by weight was 30:33:27:6, and the other groups and doses thereof were as described in Example 11.
Test index: immunoglobulin IgE in serum was used as index, and was determined by enzyme linked immunosorbent assay.

C[C@@H]1C[C@H]2[C@@H]3CCC4=CC(=O)C=C[C@]4(C)[C@@]3(F)[C@@H](O)C[C@]2(C)[C@@]1(O)C(=O)CO [dexamethasone, reference compound]
Eotaxin [1]: 7.87 ± 0.45 pg/mL
IL-6 [2]: 22.0 ± 2.0 pg/mL
IL-10 [3]: 17.45 ± 5.60 pg/mL
MDA Homogenate ([4]; lung homogenate): 6.23 ± 0.60 nmol/mL
MDA Serum ([4]; serum): 14.04 ± 3.64 nmol/mL
IL-4 [5]: 9.96 ± 4.03 pg/mL
Leukocyte number [6]: 1.1 ± 0.5 ×10^5/mL
Neutrophil number [6]: 0.53 ± 0.50 ×10^5/mL
SOD homogenate ([7]; lung homogenate): 63.92 ± 5.84 U/mL
SOD Serum ([7]; serum): 86.85 ± 9.48 U/mL
CRP [8]: 22.3 ± 2.0 pg/mL
MDA lavage fluid ([9]; BALF): 2.17 ± .17 nmol/mL
MDA Serum ([9]; serum): 10.99 ± 2.38 nmol/mL
SOD lavage fluid ([10]; BALF): 76.57 ± 12.52 U/mL
SOD Serum ([10]; serum): 74.83 ± 8.43 U/mL
Eosinophil percentage [11]: 4.32 ± 1.12 %
Number of WBCs [11]: 0.50 ± 0.17 ×10^9/L
IgE [12]: 3.23 ± 0.53 g μg/mL
